Data published in patent publication US20250018049A1, “COMPOUNDS FOR DEGRADING CYCLIN-DEPENDENT KINASE 2 VIA UBIQUITIN PROTEOSOME PATHWAY” (NIKANG THERAPEUTICS, INC., priority 2020, published 2025).

Key:
Type in all cases: cell-based
CDK2 [1] = target: T1, CDK2 (Homo sapiens, UniProt P24941); assay: NanoBRET CDK2 engagement assay; design: expressed in transfected cells; details: OVCAR3 cells with stable CDK2-Luciferase vector, 24 hours treatment
Outline: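 OVCAR3 cells stably expressing CDK2-luciferase, in Opti-MEM with 1% FBS, treated 24 h at 37° C with compound from 3 μM in ½-log steps to 0.3 nM; NanoBRET tracer present for final 2 h. Donor/acceptor emission read; engagement normalized to DMSO as 100% signal, IC50 by curve fit.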

CDK2 [2] = target: T1, CDK2; assay: Phospho-Rb HTRF measurement in OVCAR3 cells (inhibition of CDK2); design: High-Throughput Measurement of Cellular Endogenous CDK2; endogenous in cells; host or cells: OVCAR3; details: pRB(S807/811) assay, 24 h compound treatment
CDK2 [3] = target: T1, CDK2; assay: CDK2 HTRF assay (cellular endogenous CDK2 level); design: High-Throughput Measurement of Cellular Endogenous CDK2; endogenous in cells; host or cells: OVCAR3; details: OVCAR-3; OVCAR3 cells, 24 hours, 0.3 to 10,000 nM; read-out: max degradation of CDK2
Procedure: Effects of compounds on cellular CDK2 level can be monitored by a high-throughput HTRF assay or traditional Western Blot assay.
To determine half maximal degradation concentration (DC50) values of compounds, cellular CDK2 level was measured in 96-well format using HTRF total CDK2 cellular kit (Cat #64CDK2TPEG) from Cisbio.
On Day 1, OVCAR3 cells were seeded into 96-well tissue-culture treated plates at 20,000 cells/well in 200 μL and incubated overnight at 37° C. in CO2 atmosphere. On Day 2 cells were treated with compounds at concentration ranging from 0.3 to 10,000 nM using HP D300 digital dispenser. 24 hours after compound treatment, cell culture media was removed by flicking the plate and tapping the plate against clean paper towel. Immediately 30 μL 1× lysis buffer was supplemented from the kit and the plate was incubated at room temperature on shaker for 30 min. After homogenization by pipetting up and down, 8 μL cell lysate from 96-well cell culture plate was transferred to 384-well small volume white detection plate. 2 μL premixed detection solution was added and the plate was covered with sealer. To prepare the detection solution, d2 conjugated-CDK2 antibody and Eu-cryptate conjugated CDK2 antibody were diluted into detection buffer following manufacturer's instruction. Detection plates were incubated overnight at room temperature and read on ClarioStar (BMG Labtech) in TR-FRET mode (665 nM and 620 nM). The TR-FRET ratio (665 nM/620 nM) was plotted against the compound concentration and normalized to DMSO controls. Half maximal degradation concentration (DC50) values were calculated with a four-parameter logistic fit using GraphPad Prism (version 8; La Jolla, CA). FIG. 1 provides a dose-response curve of Compound 1 in Compound Table I in cellular CDK2 HTRF assay. IC50 in FIG. 1 is the same as DC50. Compounds 1, 13, 16, 22, 23, 28, 34, 35, 36, 37, 38, 39, 42, 48, 50, 51, 53, 54, 55, 56, 57, 58, 59, 60, 61, 62, 63, 65, 66, 68, 69, 70 were tested and max degradation of CDK2 observed was from about 35% to about 90%.

SMILES	IC50 (CDK2 [1]) [nM]	IC50 (CDK2 [2]) [nM]	Dmax (CDK2 [3]) [%]
O=C1CCC(N2Cc3cc(N4CC5CCC(C4)N5Cc4cccc(S(=O)(=O)N5CCC(Nc6ncc7ccc(=O)n(C8CCCC8)c7n6)CC5)c4)ccc3C2=O)C(=O)N1 (stereo not drawn) [Compound 54, 3-(5-(8-(3-((4-((8-cyclopentyl-7-oxo-7,8-dihydro-pyrido[2,3-d]pyrimidin-2-yl)amino)piperidin-1-yl)sulfonyl)benzyl)-3,8-diazabicyclo[3.2.1]octan-3-yl)-1-oxoisoindolin-2-yl)piperidine-2,6-dione]	214	72.5	35 to 90
CC1(O)CCCC1n1c(=O)ccc2cnc(NC3CCN(S(=O)(=O)c4cccc(CN5CCN(c6ccc7c(c6)CN(C6CCC(=O)NC6=O)C7=O)CC5)c4)CC3)nc21 (stereo not drawn) [Compound 55, 3-(5-(4-(3-((4-((8-(2-hydroxy-2-methyl-cyclopentyl)-7-oxo-7,8-dihydropyrido[2,3-d]-pyrimidin-2-yl)amino)piperidin-1-yl)sulfonyl)-benzyl)piperazin-1-yl)-1-oxoisoindolin-2-yl)-piperidine-2,6-dione]	736	70	35 to 90
O=C1CCC(N2Cc3cc(N4CCN(Cc5cccc(S(=O)(=O)N6CCC(Nc7ncc8cc(C(F)F)c(=O)n(C9CCCC9)c8n7)CC6)c5)CC4)ccc3C2=O)C(=O)N1 (stereo not drawn) [Compound 56, 3-(5-(4-(3-((4-((8-cyclopentyl-6-(difluoromethyl)-7-oxo-7,8-dihydropyrido[2,3-d]pyrimidin-2-yl)amino)piperidin-1-yl)sulfonyl)benzyl)piperazin-1-yl)-1-oxoisoindolin-2-yl)piperidine-2,6-dione]	241	67	35 to 90
O=C1CCC(N2Cc3cc(N4CCC5(CC4)CN(Cc4cccc(S(=O)(=O)N6CCC(Nc7ncc8ccc(=O)n(C9CCCC9)c8n7)CC6)c4)C5)ccc3C2=O)C(=O)N1 (stereo not drawn) [Compound 57, 3-(5-(2-(3-((4-((8-cyclopentyl-7-oxo-7,8-dihydro-pyrido[2,3-d]pyrimidin-2-yl)amino)piperidin-1-yl)sulfonyl)benzyl)-2,7-diazaspiro[3.5]nonan-7-yl)-1-oxoisoindolin-2-yl)piperidine-2,6-dione]	169	49.6	35 to 90
O=C1CCC(N2Cc3cc(N4CC5(CCN(Cc6cccc(S(=O)(=O)N7CCC(Nc8ncc9ccc(=O)n(C%10CCCC%10)c9n8)CC7)c6)CC5)C4)ccc3C2=O)C(=O)N1 (stereo not drawn) [Compound 58, 3-(5-(7-(3-((4-((8-cyclopentyl-7-oxo-7,8-dihydropyrido[2,3-d]pyrimidin-2-yl)amino)-piperidin-1-yl)sulfonyl)benzyl)-2,7-diazaspiro-[3.5]nonan-2-yl)-1-oxoisoindolin-2-yl)piperidine-2,6-dione]	291	155	35 to 90
O=C1CCC(N2Cc3cc(N4CCC5(CCN(Cc6cccc(S(=O)(=O)N7CCC(Nc8ncc9ccc(=O)n(C%10CCCC%10)c9n8)CC7)c6)CC5)CC4)ccc3C2=O)C(=O)N1 (stereo not drawn) [Compound 59, 3-(5-(9-(3-((4-((8-cyclopentyl-7-oxo-7,8-dihydro-pyrido[2,3-d]pyrimidin-2-yl)amino)piperidin-1-yl)sulfonyl)benzyl)-3,9-diazaspiro[5.5]undecan-3-yl)-1-oxoisoindolin-2-yl)piperidine-2,6-dione]	180	48.2	35 to 90
O=C1CCC(N2Cc3cc(N4CC5(CN(Cc6cccc(S(=O)(=O)N7CCC(Nc8ncc9ccc(=O)n(C%10CCCC%10)c9n8)CC7)c6)C5)C4)ccc3C2=O)C(=O)N1 (stereo not drawn) [Compound 60, 3-(5-(6-(3-((4-((8-cyclopentyl-7-oxo-7,8-dihydro-pyrido[2,3-d]pyrimidin-2-yl)amino)piperidin-1-yl)sulfonyl)benzyl)-2,6-diazaspiro[3.3]heptan-2-yl)-1-oxoisoindolin-2-yl)piperidine-2,6-dione]	64.5	30	35 to 90
O=C1CCC(N2Cc3cc(N4CC5(CN(Cc6cccc(S(=O)(=O)N7CCC(Nc8ncc9ccc(=O)n(C%10CC%11CC%11C%10)c9n8)CC7)c6)C5)C4)ccc3C2=O)C(=O)N1 (stereo not drawn) [Compound 61, 3-(5-(6-(3-((4-((8-(bicyclo[3.1.0]hexan-3-yl)-7-oxo-7,8-dihydropyrido[2,3-d]pyrimidin-2-yl)amino)piperidin-1-yl)sulfonyl)benzyl)-2,6-diazaspiro[3.3]heptan-2-yl)-1-oxoisoindolin-2-yl)piperidine-2,6-dione]	327	70.7	35 to 90
O=C1CCC(N2Cc3cc(N4CC5(CN(Cc6cccc(S(=O)(=O)N7CCC(Nc8ncc9ccc(=O)n(C%10%11CC(C%10)C%11)c9n8)CC7)c6)C5)C4)ccc3C2=O)C(=O)N1 (stereo not drawn) [Compound 62, 3-(5-(6-(3-((4-((8-(bicyclo[1.1.1]pentan-1-yl)-7-oxo-7,8-dihydropyrido[2,3-d]pyrimidin-2-yl)-amino)piperidin-1-yl)sulfonyl)benzyl)-2,6-diazaspiro[3.3]heptan-2-yl)-1-oxoisoindolin-2-yl)-piperidine-2,6-dione]	284	21.8	35 to 90
O=C1CCC(N2C(=O)c3cc(F)c(N4CCN(Cc5cccc(S(=O)(=O)N6CC[C@H](Nc7ncc8ccc(=O)n(C9CCCC9)c8n7)[C@H](F)C6)c5)CC4)cc3C2=O)C(=O)N1 (stereo partly drawn) [Compound 63, 5-(4-(3-(((3R,4S)-4-((8-cyclopentyl-7-oxo-7,8-dihydropyrido[2,3-d]pyrimidin-2-yl)amino)-3-fluoropiperidin-1-yl)sulfonyl)benzyl)piperazin-1-yl)-2-(2,6-dioxopiperidin-3-yl)-6-fluoroiso-indoline-1,3-dione]	265	180	35 to 90
O=C1CCC(N2C(=O)c3cc(F)c(N4CCN(Cc5cccc(S(=O)(=O)N6CC[C@H](Nc7ncc8ccc(=O)n(C9CCCC9)c8n7)[C@@H](F)C6)c5)CC4)cc3C2=O)C(=O)N1 (stereo partly drawn) [Compound 65, 5-(4-(3-(((3S,4S)-4-((8-cyclopentyl-7-oxo-7,8-dihydropyrido[2,3-d]pyrimidin-2-yl)amino)-3-fluoropiperidin-1-yl)sulfonyl)benzyl)piperazin-1-yl)-2-(2,6-dioxopiperidin-3-yl)-6-fluoro-isoindoline-1,3-dione]	1750	6440	35 to 90
O=C1CCC(N2Cc3cc(CN4CCC(Oc5cccc(S(=O)(=O)N6CCC(Nc7ncc8ccc(=O)n(C9CCCC9)c8n7)CC6)c5)CC4)ccc3C2=O)C(=O)N1 (stereo not drawn) [Compound 66, 3-(5-((4-(3-((4-((8-cyclopentyl-7-oxo-7,8-dihydropyrido[2,3-d]pyrimidin-2-yl)amino)-piperidin-1-yl)sulfonyl)phenoxy)-piperidin-1-yl)-methyl)-1-oxoisoindolin-2-yl)piperidine-2,6-dione]	46	107	35 to 90
O=C1CCC(N2Cc3cc(CNCCOc4cccc(S(=O)(=O)N5CCC(Nc6ncc7ccc(=O)n(C8CCCC8)c7n6)CC5)c4)ccc3C2=O)C(=O)N1 (stereo not drawn) [Compound 68, 3-(5-(((2-(3-((4-((8-cyclopentyl-7-oxo-7,8-dihydropyrido[2,3-d]pyrimidin-2-yl)amino)-piperidin-1-yl)sulfonyl)phenoxy)ethyl)amino)-methyl)-1-oxoisoindolin-2-yl)piperidine-2,6-dione]	197	29.4	35 to 90
O=C1CCC(N2Cc3cc(N4CC(N5CCN(c6cccc(S(=O)(=O)N7CCC(Nc8ncc9ccc(=O)n(C%10CCCC%10)c9n8)CC7)c6)CC5)C4)ccc3C2=O)C(=O)N1 (stereo not drawn) [Compound 69, 3-(5-(3-(4-(3-((4-((8-cyclopentyl-7-oxo-7,8-dihydropyrido[2,3-d]pyrimidin-2-yl)amino)-piperidin-1-yl)sulfonyl)phenyl)piperazin-1-yl)azetidin-1-yl)-1-oxoisoindolin-2-yl)piperidine-2,6-dione]	149	31.8	35 to 90
